{"source": "paper PMC8175350", "about": "“Drug repurposing screens identify chemical entities for the development of COVID-19 interventions” (Nature Communications, 2021)", "key": {"Calu-3 cells [1]": {"system": "Calu-3 cells", "assay": "cells", "conditions": "Homo sapiens"}, "in vitro [2]": {"assay": "in vitro", "conditions": "human, Calu-3 uninfected cytotoxicity CC50 GeoMean"}, "HeLa-ACE2 cells [3]": {"system": "HeLa-ACE2 cells", "assay": "cells", "conditions": "Homo sapiens"}, "HeLa-ACE2 cells [4]": {"system": "HeLa-ACE2 cells", "assay": "Uninfected HeLa-ACE2 24 h live/dead cytotoxicity counter screen", "assay_type": "cell-based, human"}, "[5]": {"assay": "Uninfected HeLa-ACE2 24 h live/dead cytotoxicity counter screen", "assay_type": "cell-based, human", "conditions": "human, uninfected HeLa-ACE2 cells, read-out: HeLa-ACE2 uninfected cytotoxicity CC50 GeoMean"}, "in vitro [6]": {"assay": "in vitro", "conditions": "human"}, "HepG2 [7]": {"system": "HepG2", "conditions": "human, 72 h"}, "SARS-CoV-2 [8]": {"system": "SARS-CoV-2", "assay": "microbe, parasite or virus in culture", "assay_type": "cell-based", "conditions": "for Emax: Severe acute respiratory syndrome coronavirus 2, HeLa-ACE2, 24 h, read-out: HeLa-ACE2 CoV-2 Sinf Average; for EC50: read-out: HeLa-ACE2 CoV-2 EC50 GeoMean; for HeLa-ACE2 SI: selectivity index, uninfected HeLa-ACE2 CC50 / SARS-CoV-2 EC50"}, "SARS-CoV-2 [9]": {"system": "SARS-CoV-2", "assay": "microbe, parasite or virus in culture", "assay_type": "cell-based", "conditions": "for EC50: Severe acute respiratory syndrome coronavirus 2, Calu-3, read-out: Calu-3 CoV-2 EC50 GeoMean"}, "SARS-CoV-2 [10]": {"system": "SARS-CoV-2", "assay": "microbe, parasite or virus in culture", "assay_type": "cell-based", "conditions": "for EC50: read-out: HeLa-ACE2 TOA CoV-2 EC50 GeoMean; for SARS-CoV-2 % infected cells: 10 µM after 1 h infection"}, "HeLa-ACE2 cells [11]": {"system": "HeLa-ACE2 cells", "assay": "cells", "assay_type": "cell-based, human", "conditions": "Homo sapiens, HeLa-ACE2; read-out: HeLa-ACE2 TOA cell count EC50 GeoMean"}, "HEK293T [12]": {"system": "HEK293T", "conditions": "human, 72 h"}, "in vitro [13]": {"assay": "in vitro", "conditions": "human", "remark": "listed apart in the source"}, "Calu-3 cells [14]": {"system": "Calu-3 cells"}, "SARS-CoV-2 [15]": {"system": "SARS-CoV-2", "assay_type": "cell-based", "conditions": "combination with remdesivir"}, "[16]": {"assay": "HepG2 72 h CellTiter-Glo cytotoxicity", "conditions": "human, HepG2 cells"}, "HepG2 [17]": {"system": "HepG2", "assay": "HepG2 72 h CellTiter-Glo cytotoxicity", "conditions": "72 h"}, "[18]": {"assay": "Uninfected Calu-3 48 h Cell-Titer Glo cytotoxicity counter screen", "conditions": "human, uninfected Calu-3 cells, Calu-3 uninfected cytotoxicity CC50 GeoMean"}, "Calu-3 cells [19]": {"system": "Calu-3 cells", "assay": "Uninfected Calu-3 48 h Cell-Titer Glo cytotoxicity counter screen", "conditions": "human, uninfected Calu-3 cells, 48 h"}, "HeLa-ACE2 cells [20]": {"system": "HeLa-ACE2 cells", "assay": "Total cell count in the HeLa-ACE2 TOA (time of addition) assay", "assay_type": "cell-based, human", "conditions": "Homo sapiens, HeLa-ACE2; read-out: HeLa-ACE2 TOA cell count EC50 GeoMean"}, "COVID-19": {"system": "COVID-19", "conditions": "ref [9]; cited from earlier work"}, "[21]": {"assay": "HEK293T 72 h CellTiter-Glo cytotoxicity", "conditions": "human, HEK293T cells"}, "HEK293T [22]": {"system": "HEK293T", "assay": "HEK293T 72 h CellTiter-Glo cytotoxicity", "conditions": "72 h"}, "[23]": {"conditions": "curve plateau at infinite concentration"}, "[24]": {"conditions": "Severe acute respiratory syndrome coronavirus 2, HeLa-ACE2, detail block"}, "[25]": {"conditions": "Severe acute respiratory syndrome coronavirus 2, HeLa-ACE2, detail column"}}, "note": "Several values for one entry are separate records, joined by “and”; a condition that tells them apart may be missing. Equal values may be shown once. Where a name gives a salt, the structure may show the parent alone. Read-outs that look alike come from different tables or passages of the source."}
{"compound": "Oc1ccc(Nc2ccnc3cc(Cl)ccc23)cc1CN1CCCC1", "note": "[Amopyroquine]", "values": [{"measurement": "EC50", "setting": "Calu-3 cells [1]; Calu-3, read-out: Calu-3 cell count EC50 GeoMean, detail block", "result": "> 9.98", "unit": "µM"}, {"measurement": "CC50 at 48 h", "setting": "in vitro [2]", "result": 18.7, "unit": "µM"}, {"measurement": "EC50", "setting": "HeLa-ACE2 cells [3]; HeLa-ACE2, read-out: HeLa-ACE2 cell count EC50 GeoMean, detail block", "result": "> 9.59", "unit": "µM"}, {"measurement": "HeLa-ACE2 uninfected cytotoxicity Sinf Average", "setting": "HeLa-ACE2 cells [4]; [23]", "result": -100, "unit": "%"}, {"measurement": "CC50 at 24 h", "setting": "[5]; detail block", "result": 17.2, "unit": "µM"}, {"measurement": "CC50 at 72 h", "setting": "in vitro [6]", "result": 6.31, "unit": "µM"}, {"measurement": "HepG2 72-hour cytotoxicity Sinf Average", "setting": "HepG2 [7]", "result": -102, "unit": "%"}, {"measurement": "Emax", "setting": "SARS-CoV-2 [8]; [23]", "result": 100, "unit": "%"}, {"measurement": "EC50", "setting": "SARS-CoV-2 [8]; [24]", "result": 0.904, "unit": "µM"}, {"measurement": "HeLa-ACE2 SI", "setting": "SARS-CoV-2 [8]", "result": 19.02}, {"measurement": "Emax", "setting": "SARS-CoV-2 [9]; Severe acute respiratory syndrome coronavirus 2, Calu-3, 48 h, curve plateau at infinite concentration, read-out: Calu-3 CoV-2 Sinf Average", "result": 100, "unit": "%"}, {"measurement": "EC50", "setting": "SARS-CoV-2 [9]; detail block", "result": "> 9.98", "unit": "µM"}, {"measurement": "Calu-3 SI", "setting": "SARS-CoV-2 [9]; selectivity index, uninfected Calu-3 CC50 / Calu-3 SARS-CoV-2 EC50", "result": 1.87}, {"measurement": "Emax", "setting": "SARS-CoV-2 [10]; Severe acute respiratory syndrome coronavirus 2, HeLa-ACE2, 10 h, curve plateau at infinite concentration, read-out: HeLa-ACE2 TOA CoV-2 Sinf Average", "result": 100, "unit": "%"}, {"measurement": "EC50", "setting": "SARS-CoV-2 [10]; [24]", "result": "> 9.59", "unit": "µM"}, {"measurement": "TOA:HeLa-ACE2 EC50 Ratio", "setting": "SARS-CoV-2 [10]; TOA EC50 / HeLa-ACE2 SARS-CoV-2 EC50", "result": 10.603}, {"measurement": "EC50", "setting": "HeLa-ACE2 cells [11]", "result": "> 9.59", "unit": "µM"}, {"measurement": "HEK293T 72-hour cytotoxicty Sinf Average", "setting": "HEK293T [12]", "result": -103, "unit": "%"}, {"measurement": "CC50 at 72 h", "setting": "in vitro [13]", "result": 6.39, "unit": "µM"}, {"measurement": "uninfected Calu-3 CC50", "setting": "Calu-3 cells [14]", "result": "18.669 ×÷ 1.171 (n=3) μM"}, {"measurement": "Calu-3 uninfected cytotoxicity Sinf Average", "setting": "Calu-3 cells [14]; human, 48 h", "result": -96, "unit": "%"}]}
{"compound": "CCN(CCO)CCCC(C)Nc1ccnc2cc(Cl)ccc12", "note": "(centres unmarked) [Hydroxychloroquine sulfate]", "values": [{"measurement": "EC50", "setting": "Calu-3 cells [1]; Calu-3, read-out: Calu-3 cell count EC50 GeoMean", "result": "> 9.99", "unit": "µM"}, {"measurement": "Emax", "setting": "HeLa-ACE2 cells [3]; HeLa-ACE2, 24 h, read-out: HeLa-ACE2 cell count Sinf Average", "result": -47, "unit": "%"}, {"measurement": "EC50", "setting": "HeLa-ACE2 cells [3]; HeLa-ACE2, read-out: HeLa-ACE2 cell count EC50 GeoMean", "result": "> 5.88", "unit": "µM"}, {"measurement": "HeLa-ACE2 uninfected cytotoxicity Sinf Average", "setting": "HeLa-ACE2 cells [4]; human, uninfected HeLa-ACE2 cells, 24 h", "result": -99, "unit": "%"}, {"measurement": "CC50 at 24 h", "setting": "[5]", "result": "> 18.3", "unit": "µM"}, {"measurement": "HeLa-ACE2 synergy score with remdesivi", "setting": "SARS-CoV-2 [15]", "result": "-1.572 δ"}, {"measurement": "CC50 at 72 h", "setting": "[16]", "result": 3.62, "unit": "µM"}, {"measurement": "HepG2 72-hour cytotoxicity Sinf Average", "setting": "HepG2 [17]", "result": -100, "unit": "%"}, {"measurement": "Emax", "setting": "SARS-CoV-2 [8]", "result": 100, "unit": "%"}, {"measurement": "EC50", "setting": "SARS-CoV-2 [8]; [25]", "result": 0.458, "unit": "µM"}, {"measurement": "HeLa-ACE2 SI", "setting": "SARS-CoV-2 [8]", "result": "> 40.04"}, {"measurement": "EC50", "setting": "SARS-CoV-2 [9]", "result": "> 9.99", "unit": "µM"}, {"measurement": "TOA:HeLa-ACE2 EC50 Ratio", "setting": "SARS-CoV-2 [10]", "result": 20.968}, {"measurement": "SARS-CoV-2 % infected cells", "setting": "SARS-CoV-2 [10]; 4:00:00 post infection", "result": "0.3802% and 0.1721% and 0.1129%"}, {"measurement": "SARS-CoV-2 % infected cells", "setting": "SARS-CoV-2 [10]; 5:00:00", "result": "0.24% and 0.7413% and 0.2751%"}, {"measurement": "SARS-CoV-2 % infected cells", "setting": "SARS-CoV-2 [10]; 6:00:00", "result": "11.7654% and 10.6398% and 10.3646%"}, {"measurement": "SARS-CoV-2 % infected cells", "setting": "SARS-CoV-2 [10]; 7:00:00", "result": "25.8166% and 25.8417% and 29.0337%"}, {"measurement": "SARS-CoV-2 % infected cells", "setting": "SARS-CoV-2 [10]; 8:00:00", "result": "31.116% and 29.6088% and 30.8104%"}, {"measurement": "SARS-CoV-2 % infected cells", "setting": "SARS-CoV-2 [10]; 10:00:00", "result": "33.0276% and 34.8116% and 35.0891%"}, {"measurement": "SARS-CoV-2 % infected cells", "setting": "SARS-CoV-2 [10]; 11:00:00", "result": "35.46% and 36.5434% and 36.8817%"}, {"measurement": "SARS-CoV-2 % infected cells", "setting": "SARS-CoV-2 [10]; 12:00:00", "result": "33.0004% and 35.9224% and 38.4986%"}, {"measurement": "SARS-CoV-2 % infected cells", "setting": "SARS-CoV-2 [10]; 24:00:00", "result": "45.3401% and 44.0948% and 41.0805%"}, {"measurement": "activity when treatment was initiated at 1 hpi", "setting": "SARS-CoV-2 [10]; HeLa-ACE2, 10 µM", "result": "Loss of activity"}, {"measurement": "EC50", "setting": "SARS-CoV-2 [10]; [25]", "result": "> 9.61", "unit": "µM"}, {"measurement": "CC50 at 48 h", "setting": "[18]", "result": "> 24.7", "unit": "µM"}, {"measurement": "Calu-3 uninfected cytotoxicity Sinf Average", "setting": "Calu-3 cells [19]", "result": -100, "unit": "%"}, {"measurement": "EC50", "setting": "HeLa-ACE2 cells [20]", "result": "> 9.61", "unit": "µM"}, {"measurement": "mortality of hospitalized COVID-19 patients", "setting": "COVID-19", "result": "failed to reduce mortality"}, {"measurement": "CC50 at 72 h", "setting": "[21]", "result": 10.1, "unit": "µM"}, {"measurement": "HEK293T 72-hour cytotoxicty Sinf Average", "setting": "HEK293T [22]", "result": -101, "unit": "%"}, {"measurement": "cytotox", "setting": "Calu-3 cells [14]; human", "result": 13.7874}]}
{"compound": "interferon", "values": [{"measurement": "mortality of hospitalized COVID-19 patients", "setting": "COVID-19", "result": "failed to reduce mortality"}]}
